Data: article PMC10766610, “DCAF1-based PROTACs with activity against clinically validated targets overcoming intrinsic- and acquired-degrader resistance” (Nature Communications, 2024)

Key:
BRD9 [1] = biological target: T1, BRD9 (Homo sapiens, UniProt Q9H8M2); assay: Capillary western of BRD9 in 768-O cells; format: cell-based; conditions: 768-O cells (lacking VHL), 2 h
T1 sequence (Q9H8M2 1-597): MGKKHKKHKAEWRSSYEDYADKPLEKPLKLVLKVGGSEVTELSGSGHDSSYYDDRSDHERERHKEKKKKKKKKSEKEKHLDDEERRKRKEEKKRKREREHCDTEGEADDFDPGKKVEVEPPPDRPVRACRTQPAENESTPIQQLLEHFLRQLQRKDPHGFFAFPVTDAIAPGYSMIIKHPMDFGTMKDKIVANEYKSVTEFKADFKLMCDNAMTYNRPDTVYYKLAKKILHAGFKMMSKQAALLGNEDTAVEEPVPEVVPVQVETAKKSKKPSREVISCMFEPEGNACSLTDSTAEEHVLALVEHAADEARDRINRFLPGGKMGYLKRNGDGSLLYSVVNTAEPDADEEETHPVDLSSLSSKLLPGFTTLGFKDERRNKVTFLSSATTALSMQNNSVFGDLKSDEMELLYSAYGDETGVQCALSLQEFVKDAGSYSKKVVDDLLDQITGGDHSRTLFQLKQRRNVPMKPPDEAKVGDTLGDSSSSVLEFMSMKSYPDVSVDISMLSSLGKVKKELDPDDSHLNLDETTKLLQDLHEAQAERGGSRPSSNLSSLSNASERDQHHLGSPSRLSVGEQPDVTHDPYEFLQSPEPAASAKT
Experimental: Protein peaks were analyzed using Compass for Simple Western version 5.0.1 (ProteinSimple), area under the curve for both α-tubulin ([…]) and BRD9 (90 kDa) per capillary was extracted and BRD9 area was normalized to α-tubulin area on a per-capillary basis before each sample was normalized to the DMSO for each run of three triplicates.

BRD9 [2] = biological target: T1, BRD9; assay: BRD9-HiBiT protein abundance luminescence assay in HEK293 cells; conditions: 2 h
Description: HEK293/BRD9-HiBiT pools (PROMEGA # CS3023120) and HEK293/BRD7-HiBiT pools (PROMEGA # CS3023124) were purchased from Promega. We performed clonal selection for HEK293/BRD9-HiBiT cell line using single-cell sorting and screening for HiBiT expression using Nano-Glo HiBiT Lytic Detection System (Promega # N3030). The HEK293/BRD9-HiBiT clone and HEK293/BRD7-HiBiT pool to perform standard HiBiT assays.

TMD8 cells = assay: Whole proteomics profile, DBt-10 vs (19), TMD8 cells; format: cell-based, human; conditions: 5 µM DBt-10 vs 5 µM (19), 6 h
Experimental: HEK293T and TMD8 cells were cultured according to protocol and 3 million cells were plated per sample and recovered for 24 h. The following day, cells were treated with indicated compounds at corresponding concentrations for 6 h. Cells were then harvested and washed 2× with PBS before removing all liquid and snap freezing in liquid nitrogen before sample preparation for proteomics.
TMT-labeled peptides were generated with the iST-NHS kit (PreOmics) and TMT10plex (duplicates per condition) or TMT18plex (triplicates per condition) reagent (Thermo Fisher Scientific). Equal amounts of labeled peptides were pooled and separated on a high pH fractionation system with a water-acetonitrile gradient containing 10 mM ammonium formate, pH 11[88]. Alternating rows of the resulting 72 fractions were pooled into 24 samples, dried and resuspended in water containing 0.1% formic acid.
The LC-MS analysis was carried out on an EASY-nLC 1200 system coupled to an Orbitrap Fusion Lumos Tribrid mass spectrometer (Thermo Fisher Scientific). […]
LC-MS raw files were analyzed with Proteome Discoverer 2.4 (Thermo Fisher Scientific). […] TMT reporter ions of the MS3 spectra were integrated with a 20 ppm tolerance and the reporter ion intensities were used for quantification. […] Protein relative quantification was performed using an in-house developed R (v.3.6) script. […]

Row | Structure (SMILES) | DC50 (BRD9 [1]) | DC50 (BRD9 [2]; read-out: DC50 BRD9-HiBiT, BRD9-HiBiT/CAS9/FF cells) | DC50 (BRD9 [2]; read-out: DC50 BRD9, HEK293/BRD9-HiBiT cells) | only other protein with significantly reduced abundance (proteomics) (TMD8 cells) | strongest reduced protein (proteomics) (TMD8 cells)
1 | COc1cc(-c2cn(C)c(=O)c3cnccc23)c(OC)cc1CN1CCC(OCCCCCC(=O)N2CCN(c3ccc4c(NCCN)nc(C5(c6ccc(Cl)cc6)CCCCC5)nc4c3)CC2)CC1 [DBr-1] | 1040 nM | 193 nM | 90 nM | – | –
2 | Cc1c(NC(=O)N2CC(O)(CC(C)(C)C)C2)cc(F)cc1-c1ncnc2[nH]c(-c3cnn(CC(=O)N4CCC5(CC4)CN(CCNC(=O)CCCC(=O)N4CCN(c6ccc7c(NCCN)nc(C8(c9ccc(Cl)cc9)CCCCC8)nc7c6)CC4)CCO5)c3)cc12 [DBt-10] | – | – | – | LIM domain kinase 1 (LIMK1) | BTK
